Source: US20110059948A1, “QUINOLINE, NAPHTHALENE AND CONFORMATIONALLY CONSTRAINED QUINOLINE OR NAPHTHALENE DERIVATIVES AS ANTI-MYCOBACTERIAL AGENTS” (priority 2008, published 2011)

Columns and labels:
[1] = test system: clinical isolate MDR (BTB 08-072); test: microbe, parasite or virus in culture; format: cell-based, Mycobacterium tuberculosis; conditions: for MIC against MDR-TB (BTB 08-072), strain resistant to all front line drugs: agar dilution, Middlebrook 7H10; for MIC: Mycobacterium tuberculosis, read-out: MIC against MDR-TB (BTB 08-072), strain resistant to all front line drugs
[2] = test system: clinical isolates resistant to one or more standard antitubercular drugs (MDR-TB strains); test: microbe, parasite or virus in culture; format: cell-based, Mycobacterium tuberculosis; conditions: for MIC M. tuberculosis Resistant (n = 10): clinical isolates, n = 10 strains tested

SMILES	MIC against MDR-TB (BTB 08-072), strain resistant to all front line drugs [1] [mg/L]	MIC M. tuberculosis Resistant (n = 10) [2] [mg/L]	MIC [1] [mg/L]	MIC ([2]; Mycobacterium tuberculosis, read-out: MIC M. tuberculosis Resistant (n = 10)) [mg/L]
CC(c1cc(F)ccc1Oc1nc2ccc(-n3cc(-c4ccccc4)nn3)cc2cc1Cc1ccccc1)n1ccnc1 (centres unmarked) [Example 23]	>6.25	<6.25		
COc1cccc(NC(=O)Nc2ccc3nc(Oc4ccc(F)cc4C(C)O)c(Cc4ccccc4)cc3c2)c1 (centres unmarked) [Example 26]	>4.0	<4.0		
CC(O)c1cc(F)ccc1Oc1nc2ccc(NC(=O)Nc3cccc([N+](=O)[O-])c3)cc2cc1Cc1ccccc1 (centres unmarked) [Example 31]	>6.25	<6.25		
ON=C1c2ccccc2-c2c1c(N1CCN(c3ccccn3)CC1)nc1ccc(Br)cc21 [Example 134]	>6.25	<6.25		
NNC(=O)c1ccncc1 [Isoniazid, reference compound]			> 16	> 16
CO[C@H]1/C=C/O[C@@]2(C)Oc3c(C)c(O)c4c(O)c(c(/C=N/N5CCN(C)CC5)c(O)c4c3C2=O)NC(=O)/C(C)=C\C=C\[C@H](C)[C@H](O)[C@@H](C)[C@@H](O)[C@@H](C)[C@H](OC(C)=O)[C@@H]1C [Refampin, Rifampicin, reference compound]			> 16	
